Results published in US11642343B2, “Methods of treating splenomegaly” (Telios Pharma, Inc., priority 2020, dated 2023).

What was measured:
[1] = molecular target: T1, BTK (Homo sapiens, UniProt Q06187); test: Inhibition of BTK phosphorylation (activation) in myeloid cell line Hel-92 basal; assay type: cell-based; design: endogenous in cells; host or cells: MOLM-13; settings: incubated two hours with no stimulation
Method: (§1) Inhibition of BTK phosphorylation (activation) by Compound No. 128 (1-(4-(((6-amino-5-(4-phenoxyphenyl)pyrimidin-4-yl)amino)methyl)-4-fluoropiperidin-1-yl)prop-2-en-1-one) was assessed in healthy B-cells and in myeloid cell lines MOLM-13 basal and Hel-92 basal. Compound No. 128 was incubated with the myeloid cells lines for two hours with no stimulation and with healthy PBMC5 for two hours with 10 minutes of αIgM and H2O2 stimulation.

[2] = molecular target: T1, BTK; test: Inhibition of BTK phosphorylation (activation) in healthy B-cells; assay type: cell-based; design: endogenous in cells; settings: healthy PBMC incubated two hours with 10 minutes of αIgM and H2O2 stimulation
Method: as §1

[3] = tested on: MV-411 cells; test: Fibronectin release: detachment of cells from fibronectin-coated plates; assay type: cell-based; settings: MV-411 cells on fibronectin-coated plates; 1, 2, or 5 μm for two hours at 37° C.; CellTiter Glo; FIG. 2
Method: Fibronectin is an important component of the microenvironment extracellular matrix and attaches to cells through VLA-4 (integrin α4β1). Detachment of cells from fibronectin after exposure to Compound No. 128 was assessed by plating 1×10^6 MV-411 cells on fibronectin-coated plates (3 replicates). The cells were allowed to adhere overnight at 37° C. and then unadhered cells were washed away. Next, attached cells were treated with DMSO or Compound No. 128 (1, 2, or 5 μm) for two hours at 37° C. Detached cells were then collected and cell numbers determined using CellTiter Glo.

[4] = tested on: stimulated whole blood; test: In vitro cytokine production in stimulated whole blood; assay type: cell-based; settings: 24 hour incubation, FIG. 4
Method: The impact on in vitro cytokine production after exposure to Compound No. 128 was assessed in stimulated whole blood following a 24 hour incubation.

[5] = tested on: CD11a (LFA-1), CD62L (L-selectin), and CD49d (VLA-4); assay type: in vivo, human; settings: monocytes from blood of treated COVID-19 patients; FIG. 3
[6] = tested on: Hel-92 (V617F mut) cells; test: In vitro inhibition of cell migration towards SDF-1 (CXCL12) through a permeable membrane; settings: FIG. 1A and 1B
[7] = molecular target: T1, BTK; test: Inhibition of BTK phosphorylation (activation) in myeloid cell line MOLM-13 basal; assay type: cell-based; design: endogenous in cells; host or cells: MOLM-13; settings: incubated two hours with no stimulation
Method: as §1

T1 sequence (Q06187 whole entry): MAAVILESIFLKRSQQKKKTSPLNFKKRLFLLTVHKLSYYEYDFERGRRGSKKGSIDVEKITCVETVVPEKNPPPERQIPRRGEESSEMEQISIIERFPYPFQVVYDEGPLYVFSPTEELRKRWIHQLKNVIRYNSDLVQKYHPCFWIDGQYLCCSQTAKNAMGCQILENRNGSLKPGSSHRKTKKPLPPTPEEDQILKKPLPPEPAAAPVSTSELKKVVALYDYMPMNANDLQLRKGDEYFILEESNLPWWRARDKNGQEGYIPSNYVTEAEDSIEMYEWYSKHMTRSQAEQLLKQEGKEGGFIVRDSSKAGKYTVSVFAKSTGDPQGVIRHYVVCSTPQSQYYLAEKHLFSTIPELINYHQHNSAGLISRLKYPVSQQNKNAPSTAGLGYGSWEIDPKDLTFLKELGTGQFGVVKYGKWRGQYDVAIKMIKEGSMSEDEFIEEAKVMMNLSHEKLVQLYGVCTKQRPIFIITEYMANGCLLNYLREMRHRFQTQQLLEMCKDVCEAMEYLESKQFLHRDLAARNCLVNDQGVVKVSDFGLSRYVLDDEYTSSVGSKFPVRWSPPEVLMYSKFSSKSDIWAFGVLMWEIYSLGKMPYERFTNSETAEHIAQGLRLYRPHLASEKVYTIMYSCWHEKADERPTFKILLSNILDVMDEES

C=CC(=O)N1CCC(F)(CNc2ncnc(N)c2-c2ccc(Oc3ccccc3)cc2)CC1 [Compound No. 128, 1-(4-(((6-amino-5-(4-phenoxyphenyl)pyrimidin-4-yl)amino)methyl)-4-fluoropiperidin-1-yl)prop-2-en-1-one]
EC50 [1]: 19.7 nM
EC50 [2]: 16.9 nM
detachment of cells from fibronectin [3]: cells detached from fibronectin
cytokine and chemokine production [4]: decreased cytokine and chemokine production upon cellular stimulation
levels of surface molecules CD11a (LFA-1), CD62L (L-selectin), CD49d (VLA-4) [5]: reduced levels of surface molecules in some patients
inhibition of cell migration towards SDF-1 [6]: inhibit cell migration towards SDF-1
EC50 [7]: 21.4 nM
